Columns and labels:
citrated whole blood = test: rTEG with ecarin test of spiked blood; assay type: biochemical, human
Excerpt: The TEG clotting assay was used to determine if low, normal, and high doses of dabigatran, rivaroxaban, and apixaban could be detected in blood spiked with these compounds. Three oral anticoagulants (OAC), namely dabigatran, rivaroxaban, and apixaban, were spiked into blood obtained from 14 healthy volunteer human donors. For each OAC tested, citrated blood from three donors was spiked with three different concentrations of the active drug (i.e., the compound). The spiked blood samples and control samples spiked with diluent were tested with the TEG® 5000 Thrombelastograph® Hemostasis Analyzer (Haemonetics Corporation, Braintree, Mass., USA) using the Kaolin and RapidTEG® reagents (Haemonetics). Each sample was run in triplicate. All samples were tested with and without ecarin (purchased from Enzyme Research Laboratories, South Bend, IN). This study was IRB approved and all donors were over 18 and signed informed consent forms.
340 μL of the citrated blood sample was added to the cup with these two reagents, and the contents of the cup were mixed 3 times by drawing the contents of the cup up into the pipette and redispensing it into the cup. The test was started immediately after mixing and allowed to run until the MA parameter had defined. The rTEG with ecarin test was performed as the rTEG test above, using 20 μL of an ecarin/CaCl2 solution (0.16M CaCl2; 19EU/mL ecarin).

[1] = tested on: blood from healthy volunteers; test: Thromboelastography R time of spiked blood in the presence of the FXa reagent; assay type: biochemical, human; details: in vitro spiking, increasing concentrations
Description: Blood from healthy volunteers known not to be taking any oral anticoagulant and without any other significant health issues are analyzed using the FXa or the Ecarin reagent in a TEG® hemostasis analyzer. The FXa reagent (i.e., the Factor Xa reagent) is used to detect the presence (or absence) of an anticoagulant in the blood component being tested. In absence of any oral anticoagulant, the FXa reagent will accelerate the clotting process and result in a very short R-time. In presence of direct thrombin inhibitors and/or anti-Factor Xa anticoagulant(s), the process is slowed down and will cause elongation of the R-time. This difference in R-time is utilized to detect the presence of the oral anticoagulant. The R-time generated from multiple donors was used to construct a reference range. Blood was spiked with either direct thrombin inhibitors or anti-Xa(s) at different concentrations and analyzed using the FXa reagent or the Ecarin reagent. The drug concentrations chosen represent the published therapeutic ranges for these two classes of drugs. This assay was repeated in multiple donors to account for possible donor variations.

[2] = tested on: blood from healthy volunteers; test: Thromboelastography R time of spiked blood in the presence of the ecarin reagent; assay type: biochemical, human
Description: Blood from healthy volunteers known not to be taking any oral anticoagulant and without any other significant health issues are analyzed using the FXa or the Ecarin reagent in a TEG® hemostasis analyzer.
The ecarin reagent is used to classify the type of anticoagulant. The R-time from the Ecarin assay is used to differentiate between the two available classes (Direct thrombin inhibitors and anti-Xa inhibitors). This ecarin reagent may be used in combination with the results from the FXa reagent to make a decision. A reference range will be generated from a sample healthy volunteer population (not on any drug) for this reagent.
The R-time generated from multiple donors was used to construct a reference range. Blood was spiked with either direct thrombin inhibitors or anti-Xa(s) at different concentrations and analyzed using the FXa reagent or the Ecarin reagent. The drug concentrations chosen represent the published therapeutic ranges for these two classes of drugs. This assay was repeated in multiple donors to account for possible donor variations.
The R time (in minutes) was compared to the R time obtained from donor blood with no oral anticoagulant (who is known not to be administered with an anticoagulant) treated with the ecarin reagent and measured using thromboelastography.
The R time (in minutes) was compared to the R time obtained from donor blood with no oral anticoagulant (i.e., taken from a patient who is known not to be administered with an anticoagulant) treated with the ecarin reagent and measured using thromboelastography.

[3] = cited from earlier work

Row | Compound | TEG-ACT times on addition of ecarin to the RapidTEG test (citrated whole blood) | TMRTG times on addition of ecarin to the RapidTEG test (citrated whole blood) | RapidTEG α angle when ecarin was added (citrated whole blood; any of the studied concentrations) | RapidTEG K values when ecarin was added (citrated whole blood; middle concentration (89 ng/mL)) | R-time compared to the reference range, FXa reagent [1] | R time versus reference range of approximately 1 to 4.1 minutes ([2]; 50-350 ng/ml, ecarin) | half-lives compared ([3]; in vivo) | Cmax ([3]; oral dose of 10 mg) [ng/mL] | MA value on addition of ecarin to the RapidTEG test (citrated whole blood; 200 ng/mL, still within normal range) | RapidTEG α angle when ecarin was added (citrated whole blood; lowest concentrations (200 ng/mL, 50 ng/mL)) | RapidTEG K values when ecarin was added (citrated whole blood; middle concentration (200 ng/mL)) | R time versus untreated R time of unspiked donor blood ([2]; 50 ng/ml, donor 126, ecarin reagent) | R time relative to the reference range of 3.1 minutes ([2]; 50 ng/ml, donors 117, 127, and 146, ecarin) | R time relative to the collective reference range of 3.1 minutes ([2]; 150 ng/ml, all four donors, ecarin) | maximum plasma concentration ([3]; 150 mg oral dose) [ng/mL] | half-life ([3]; lengthened in patients with renal dysfunction) [h]
1 | O=C(NC[C@H]1CN(c2ccc(N3CCOCC3=O)cc2)C(=O)O1)c1ccc(Cl)s1 [rivaroxaban, Rivaroxaban] | significantly decreases | significantly decreases | did not change | significantly decreased | dose dependent elongation of the R-time | within the reference range | shorter half-lives than dabigatran | 141 | – | – | – | – | – | – | – | –
2 | dabigatran | significantly decreases | significantly decreases | – | – | dose dependent elongation of the R-time | – | – | – | significantly decreased | decrease of the angle value | increased | two times longer | at least 1.25 times | at least 1.25 times | 110 | 12 to 17

From patent US10954549B2, “Detection and classification of an anticoagulant using a clotting assay” (Haemonetics Corporation, priority 2014, dated 2021)
